Values joined by “and” are separate entries in the source; they are usually repeats but may differ in a detail not shown here. Identical values can stand only once. Toxic doses and inconclusive results are not listed.
Tested on: BDF1 mice, P388 leukemia ip, median survival T/C
Assay: NCI In Vivo Anticancer Drug Screen. Data for tumor model P388 Leukemia (intraperitoneal) in B6D2F1 (BDF1) mice
Settings: endpoint: median survival time, higher = longer survival
Method in brief: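 Each value expresses how treatment altered survival: treated-mouse outcome over vehicle-mouse outcome, both groups bearing the transplanted tumour.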

[1] = dose: 50.0 mg/kg/injection, schedule: Q01DX009 (ip), vehicle: saline with Tween-80
[2] = dose: 100.0 mg/kg/injection, schedule: Q01DX009 (ip), vehicle: saline with Tween-80
[3] = dose: 100.0 mg/kg/injection, schedule: Q04DX003 (ip), vehicle: saline with Tween-80
[4] = dose: 200.0 mg/kg/injection, schedule: Q04DX003 (ip), vehicle: saline with Tween-80
[5] = dose: 200.0 mg/kg/injection, schedule: Q01DX009 (ip), vehicle: saline with Tween-80
[6] = dose: 400.0 mg/kg/injection, schedule: Q01DX009 (ip), vehicle: saline with Tween-80
[7] = dose: 400.0 mg/kg/injection, schedule: Q04DX003 (ip), vehicle: saline with Tween-80

For `COc1ccc(C2=CC(c3ccc(OC)c(OC)c3)c3c(c4ccccc4oc3=O)O2)cc1OC` (stereo not given), the T/C (dose: 12.5 mg/kg/injection, schedule: Q01DX009 (ip), vehicle: water) was 98 % of control, the T/C (dose: 25.0 mg/kg/injection, schedule: Q01DX009 (ip), vehicle: water) was 100 % of control and the T/C (dose: 25.0 mg/kg/injection, schedule: Q04DX003 (ip), vehicle: water) was 97 % of control. For the same compound, the T/C (dose: 50.0 mg/kg/injection, schedule: Q01DX009 (ip), vehicle: water) was 97 % of control, the T/C (dose: 50.0 mg/kg/injection, schedule: Q04DX003 (ip), vehicle: water) was 94 % of control and the T/C (dose: 100.0 mg/kg/injection, schedule: Q01DX009 (ip), vehicle: water) was 96 % of control and 97 % of control. For the same compound, the T/C (dose: 200.0 mg/kg/injection, schedule: Q04DX003 (ip), vehicle: water) was 97 % of control, the T/C (dose: 400.0 mg/kg/injection, schedule: Q01DX009 (ip), vehicle: water) was 106 % of control and the T/C (dose: 400.0 mg/kg/injection, schedule: Q04DX003 (ip), vehicle: water) was 97 % of control.

For `N/C(=N\[N+](=O)[O-])N(CCCCl)N=O`, the T/C (dose: 25.0 mg/kg/injection, schedule: Q01DX009 (ip), vehicle: saline with Tween-80) was 103 % of control, the T/C (dose: 27.0 mg/kg/injection, schedule: Q01DX009 (ip), vehicle: Klucel (hydroxypropylcellulose) (HPC)) was 152 % of control and the T/C (dose: 33.0 mg/kg/injection, schedule: Q01DX009 (ip), vehicle: saline with Tween-80) was 108 % of control. The T/C (dose: 37.5 mg/kg/injection, schedule: Q04DX003 (ip), vehicle: saline sonified) was 100 % of control, the T/C (dose: 40.0 mg/kg/injection, schedule: Q01DX009 (ip), vehicle: Klucel (hydroxypropylcellulose) (HPC)) was 157 % of control and the T/C [1] was 107 % of control. The T/C (dose: 60.0 mg/kg/injection, schedule: Q01DX009 (ip), vehicle: Klucel (hydroxypropylcellulose) (HPC)) was 166 % of control, the T/C (dose: 75.0 mg/kg/injection, schedule: Q04DX003 (ip), vehicle: saline sonified) was 100 % of control and the T/C [2] was 120 % of control. The T/C [3] was 109 % of control, the T/C (dose: 112.5 mg/kg/injection, schedule: Q01DX009 (ip), vehicle: saline with Tween-80) was 154 % of control and the T/C (dose: 150.0 mg/kg/injection, schedule: Q04DX003 (ip), vehicle: saline sonified) was 100 % of control. For the same compound, the T/C (dose: 176.0 mg/kg/injection, schedule: Q04DX003 (ip), vehicle: saline sonified) was 100 % of control and the T/C [4] was 122 % of control.

In the case of `CCOC(=O)CCC1(CCC(=O)OCC)OCCO1`, the T/C [2] is reported as 91 % of control, the T/C (dose: 100.0 mg/kg/injection, schedule: Q04DX003 (ip), vehicle: saline) is reported as 95 % of control and the T/C [5] is reported as 95 % of control. For the same compound, the T/C (dose: 200.0 mg/kg/injection, schedule: Q04DX003 (ip), vehicle: saline) was 109 % of control, the T/C [6] was 108 % of control and the T/C (dose: 400.0 mg/kg/injection, schedule: Q04DX003 (ip), vehicle: saline) was 109 % of control.

In the case of `CCN(CC)CCCC(C)Nc1cc(C)nc2cc(N(C)C)ccc12` (stereo not given), the T/C (dose: 6.25 mg/kg/injection, schedule: Q01DX009 (ip), vehicle: Klucel (hydroxypropylcellulose) (HPC)) is reported as 117 % of control and the T/C (dose: 12.5 mg/kg/injection, schedule: Q01DX009 (ip), vehicle: Klucel (hydroxypropylcellulose) (HPC)) is reported as 108 % of control.

With `O=[N+]([O-])c1ccc(-c2nc3ncccn3n2)cc1` the T/C [3] was 90 % of control, the T/C [4] was 100 % of control and the T/C [7] was 100 % of control.

With `COC(=O)c1cc[nH]c1CC(=O)O` the T/C (dose: 100.0 mg/kg/injection, schedule: Q01DX001 (ip), vehicle: saline with Tween-80) was 101 % of control, the T/C (dose: 200.0 mg/kg/injection, schedule: Q01DX001 (ip), vehicle: saline with Tween-80) was 106 % of control and the T/C (dose: 400.0 mg/kg/injection, schedule: Q01DX001 (ip), vehicle: saline with Tween-80) was 110 % of control.

With `Cc1ccc(N=Nc2nc3nc(N)[nH]c(=O)c3[nH]2)cc1` the T/C (dose: 50.0 mg/kg/injection, schedule: Q01DX005 (ip), vehicle: saline with Tween-80) was 100 % of control, the T/C (dose: 100.0 mg/kg/injection, schedule: Q01DX005 (ip), vehicle: saline with Tween-80) was 105 % of control and the T/C (dose: 200.0 mg/kg/injection, schedule: Q01DX005 (ip), vehicle: saline with Tween-80) was 87 % of control.

For `CC[n+]1cc(-c2ccc(NC(=O)/C=C\c3ccc(C(=O)Nc4ccc(-c5c[n+](CC)c(N)nc5N)cc4)cc3)cc2)c(N)nc1N`, the T/C (dose: 33.0 mg/kg/injection, schedule: Q04DX003 (ip), vehicle: saline with Tween-80) was 195 % of control, the T/C (dose: 50.0 mg/kg/injection, schedule: Q04DX003 (ip), vehicle: saline with Tween-80) was 272 % of control and the T/C (dose: 75.0 mg/kg/injection, schedule: Q04DX003 (ip), vehicle: saline with Tween-80) was 272 % of control.

For `NCCNc1c[nH]c(=O)[nH]c1=O`, the T/C [1] was 110 % of control, the T/C [2] was 103 % of control and the T/C [5] was 103 % of control.

`Clc1ccc(/C(=C(\Br)c2ccccc2)c2ccccc2)cc1` was tested, and the T/C [2] was 104 % of control and 100 % of control, the T/C [5] was 86 % of control and 100 % of control and the T/C [6] was 95 % of control and 90 % of control.

With `CN(C)CCSC1=CC(=O)c2ccccc2C1=O` the T/C (dose: 0.19 mg/kg/injection, schedule: Q01DX009 (ip), vehicle: water) was 116 % of control, the T/C (dose: 0.19 mg/kg/injection, schedule: Q04DX003 (ip), vehicle: water) was 95 % of control and the T/C (dose: 0.39 mg/kg/injection, schedule: Q01DX009 (ip), vehicle: water) was 109 % of control. For the same compound, the T/C (dose: 0.39 mg/kg/injection, schedule: Q04DX003 (ip), vehicle: water) was 105 % of control, the T/C (dose: 0.78 mg/kg/injection, schedule: Q01DX009 (ip), vehicle: water) was 110 % of control and the T/C (dose: 0.78 mg/kg/injection, schedule: Q04DX003 (ip), vehicle: water) was 104 % of control. For the same compound, the T/C (dose: 1.56 mg/kg/injection, schedule: Q01DX009 (ip), vehicle: water) was 109 % of control, the T/C (dose: 1.56 mg/kg/injection, schedule: Q04DX003 (ip), vehicle: water) was 106 % of control and the T/C (dose: 3.12 mg/kg/injection, schedule: Q04DX003 (ip), vehicle: water) was 95 % of control.

With `Nc1nc(=S)c2ncn(C3OC(COC(=O)c4ccc([N+](=O)[O-])cc4)C(OC(=O)c4ccc([N+](=O)[O-])cc4)C3OC(=O)c3ccc([N+](=O)[O-])cc3)c2[nH]1` (stereo not given) the T/C (dose: 100.0 mg/kg/injection, schedule: Q01DX009 (ip), vehicle: Klucel (hydroxypropylcellulose) (HPC)) was 111 % of control, the T/C (dose: 100.0 mg/kg/injection, schedule: Q04DX003 (ip), vehicle: Klucel (hydroxypropylcellulose) (HPC)) was 91 % of control and the T/C (dose: 200.0 mg/kg/injection, schedule: Q01DX009 (ip), vehicle: Klucel (hydroxypropylcellulose) (HPC)) was 103 % of control. The T/C (dose: 200.0 mg/kg/injection, schedule: Q04DX003 (ip), vehicle: Klucel (hydroxypropylcellulose) (HPC)) was 91 % of control.

In the case of `CO[C@H](C)[C@@](O)(C(=O)OCC1=CCN2CCC[C@@H]12)C(C)C`, the T/C (dose: 20.0 mg/kg/injection, schedule: Q01DX010 (ip), vehicle: carboxymethylcellulose (CMC)) is reported as 95 % of control, the T/C (dose: 40.0 mg/kg/injection, schedule: Q01DX010 (ip), vehicle: carboxymethylcellulose (CMC)) is reported as 115 % of control and the T/C (dose: 80.0 mg/kg/injection, schedule: Q01DX010 (ip), vehicle: carboxymethylcellulose (CMC)) is reported as 110 % of control.

With `CN(C)c1cc2c3c(c1)CCCN3CCC2` the T/C (dose: 3.13 mg/kg/injection, schedule: Q01DX009 (ip), vehicle: saline) was 95 % of control, the T/C (dose: 6.25 mg/kg/injection, schedule: Q01DX009 (ip), vehicle: saline) was 100 % of control and the T/C (dose: 12.5 mg/kg/injection, schedule: Q01DX009 (ip), vehicle: saline) was 113 % of control.

For `c1ccc2c(c1)ccc1[nH]c3ccccc3c12`, the T/C [3] was 116 % of control, the T/C [4] was 112 % of control and the T/C [7] was 105 % of control.

For `O=CN1CCN(c2ccc([N+](=O)[O-])c3nonc23)CC1`, the T/C (dose: 15.0 mg/kg/injection, schedule: Q01DX009 (ip), vehicle: saline with Tween-80) was 103 % of control, the T/C (dose: 20.0 mg/kg/injection, schedule: Q04DX003 (ip), vehicle: saline with Tween-80) was 100 % of control and the T/C (dose: 30.0 mg/kg/injection, schedule: Q01DX009 (ip), vehicle: saline with Tween-80) was 100 % of control. For the same compound, the T/C (dose: 40.0 mg/kg/injection, schedule: Q04DX003 (ip), vehicle: saline with Tween-80) was 99 % of control and the T/C (dose: 80.0 mg/kg/injection, schedule: Q04DX003 (ip), vehicle: saline with Tween-80) was 95 % of control.

For `N/C(=N\O)c1cn(C2OC(CO)C(O)C2O)c2ncnc(N)c12` (stereo not given), the T/C (dose: 0.6 mg/kg/injection, schedule: Q01DX009 (ip), vehicle: Klucel (hydroxypropylcellulose) (HPC)) was 150 % of control, the T/C (dose: 1.25 mg/kg/injection, schedule: Q01DX009 (ip), vehicle: Klucel (hydroxypropylcellulose) (HPC)) was 168 % of control and the T/C (dose: 2.5 mg/kg/injection, schedule: Q01DX009 (ip), vehicle: Klucel (hydroxypropylcellulose) (HPC)) was 154 % of control. For the same compound, the T/C (dose: 5.0 mg/kg/injection, schedule: Q01DX009 (ip), vehicle: Klucel (hydroxypropylcellulose) (HPC)) was 172 % of control.
